Assay results: PMC4210147, “Sequence-Specific Dimerization of a Transmembrane Helix in Amphipol A8-35” (PLoS ONE, 2014)
Entries after “also recorded” stand apart in the source; their conditions may differ. No end group written: not given here.

What was measured:
[1] = Isothermal titration calorimetry, SDS demicellization in presence of A8-35; type: physicochemical; details: 25°C, 10 mM phosphate, 150 mM NaCl, pH 7.4
Method: ITC experiments were performed on a VP-ITC (GE Healthcare) at 25°C in 10 mM phosphate buffer (150 mM NaCl, pH 7.4). For demicellization experiments, 5-µL aliquots containing both, SDS at a concentration well above its CMC (10-13 mM) as well as A8-35 at concentrations of 5-140 µM, were injected into the sample cell containing the same amphipol concentration but no SDS. Time spans between injections were chosen long enough to allow for complete re-equilibration. Baseline subtraction and peak integration were accomplished using NITPIC [32], and the resulting isotherms were analyzed by nonlinear least-squares fitting in a spreadsheet program.
Thermal denaturation of MPs often leads to irreversible aggregation of the MP, and guanidine hydrochloride and urea, which are frequently used in unfolding studies involving soluble proteins, do typically not denature the TM regions of MPs. This is why the thermodynamic stability of integral MPs within membrane-mimetic systems is often assessed by titrating increasing concentrations of the anionic detergent SDS to MPs dissolved in a mild detergent, such as DDM [24], [40]-[44]. […] At low APol concentrations, the isotherms thus obtained resembled those measured in SDS demicellization experiments in the absence of APol. […]
Figure 5 Interactions of SDS with A8-35 monitored by isothermal titration calorimetry. […]

[2] = octylglucoside with A8-35 and other amphipols; ref [13]; cited from earlier work
[3] = target: the molecule itself; assay: FRET or BRET; energy transfer at different acceptor mole ratios at constant total peptide concentration, in 5 µM and 50 µM A8-35
[4] = target: the molecule itself; assay: FRET or BRET; steady-state FRET of FL- and TAMRA-labelled peptide (0.25 µM each, 0.5 µM total) in Amphipol A8-35 at 5 to 75 µM; 10 mM HEPES pH 7.4, 150 mM NaCl; 25°C; apparent constants; dimer to monomers
[5] = target: the molecule itself; assay: FRET or BRET; steady-state FRET at 0.5 µM peptide and 20 µM A8-35 (40:1) with increasing SDS added to preformed APol/GpA complexes; 25°C after incubation at 37°C; apparent constants; dimer to monomers

## CCCCCCCCCCCCOS(=O)(=O)[O-].[Na+] [SDS, sodium dodecyl sulfate]
[1]; qualitative
  mixing behavior of SDS with A8-35: follows a more complex pattern; also recorded: strongly non-ideal
[1]; regular mixing model, intermediate SDS contents, A8-35 5-140 µM
  nonideality parameters of SDS/A8-35 mixing: 3–4 RT

## CCCCCCCCO[C@@H]1O[C@H](CO)[C@@H](O)[C@H](O)[C@H]1O [octylglucoside]
[2]
  mixing behavior with amphipols: nearly ideal mixing behavior

B1: GpA TM domain peptide (residues 69–101 of human glycophorin A) (peptide)
peptide: SEPEITLIIFGVMAGVIGTILLISYGIRRLIKK
modifications: also: N-terminal label: fluorescein or TAMRA
notes: glycophorin A, human, transmembrane domain, residues 69-101; Self-association is measured by FRET between the FL-labelled and the TAMRA-labelled copy of the same peptide, mixed in equal concentrations (0.25 µM each); both are written as one molecule; also called GpA TM peptide; GpA TM helix; source: synthetic peptide (custom-synthesized, Peptide Specialty Laboratories, Heidelberg)
[3]
  stoichiometry N: 2
[4]
  Kd: < 300 nM
[5]
  fold increase of KD (SDS exceeding 1.5 mM against no SDS): ~10 fold
